Assay results from ChEMBL document CHEMBL5335855, “Structure-Activity Relationships of Natural C-9-Methyl-Substituted 10-Membered Lactones and Their Semisynthetic Derivatives” (J Nat Prod, 2024).
In brackets after ≈: the same amount, converted by molar mass. Several values for one entry are separate records, joined by “and”; a condition that tells them apart may be missing. Equal entries are not always repeated.

Experiments:
[1] = Toxicity in Galleria mellonella larvae upto 420 mg/kg treated for 14 days in dark; format: organism-based; conditions: in vivo, 336 h, time 14 day
[2] = Phytotoxicity in Sonchus arvensis assessed as diameter of lesions at 2 mg/ml incubated for 120 hrs by leaf puncture assay; format: toxicity
Bacillus subtilis = assay: Antibacterial activity against Bacillus subtilis NCTC […] assessed as zone of inhibition at 100 ug per disc incubated for 24 hrs by agar diffusion assay; format: functional; conditions: read-out: DIZ
[3] = Cytotoxicity against Spodoptera frugiperda Sf9 cells incubated for 24 hrs by trypan blue staining based assay; format: toxicity, cell-based; conditions: read-out: LC50
Aphididae = assay: Aphicidal activity against insects at 1 mg/ml measured after 24 hrs; format: functional
Paramecium caudatum = assay: Toxicity in Paramecium caudatum; format: organism-based; conditions: in vivo
[4] = Toxicity in Galleria mellonella larvae treated for 14 days in dark; conditions: 336 h, time 14 day
Schizaphis graminum = assay: Aphicidal activity against Schizaphis graminum at 1 mg/ml measured after 24 hrs; format: functional
MCF7 = assay: Cytotoxicity against human MCF7 cells measured after 24 hrs by MTT assay; format: functional, cell-based; conditions: MCF7, 24 h
[5] = Cytotoxicity against mouse LM3 cells measured after 24 hrs by MTT assay; format: functional, cell-based; conditions: LM3, 24 h
[6] = Cytotoxicity against mouse LP07 cells measured after 24 hrs by MTT assay; format: functional, cell-based; conditions: LP07, 24 h

Row | SMILES | Activity [1] | Activity [2] [mm] | zone of inhibition at 100 µg/disc (Bacillus subtilis) [mm] | CC50 at 24 h [3] | mortality at 1000 µg/mL (Aphididae) [%] | Activity (Paramecium caudatum) | LC50 [4] [mg/kg] | mortality at 1000 µg/mL (Schizaphis graminum) [%] | IC50 (MCF7) [µg/mL] | IC50 [5] [µg/mL] | IC50 [6] [µg/mL]
1 | C[C@@H]1CCC(=O)CCCCC(=O)O1 | Non-Toxic | 0 | 0 | > 100 µg/mL and > 540 µM |  |  |  |  |  |  | 
2 | C[C@@H]1CC[C@@H](O)[C@H](O)CCCC(=O)O1 | Non-Toxic | 0 | 0 |  | 33 |  |  |  |  |  | 
3 | C[C@H]1OC(=O)CCC(=O)C[C@H](O)[C@H]2O[C@H]21 | Non-Toxic | 1.1 | 0 |  | 13 |  |  |  |  |  | 
4 | CC(=O)O[C@@H]1CC[C@@H](C)OC(=O)/C=C\[C@@H]2O[C@H]21 | Non-Toxic | 5.2 | 0 | > 100 µg/mL and > 420 µM | 23 |  |  |  |  |  | 
5 | C[C@@H]1CC[C@@H](O)CCCCC(=O)O1 | Non-Toxic | 0 | 0 | > 100 µg/mL and > 540 µM | 0 |  |  |  |  |  | 
6 | C[C@@H]1CC[C@@H](O)[C@@H]2O[C@H]2/C=C\C(=O)O1 | Non-Toxic | 5.5 | 0 | > 100 µg/mL and > 500 µM | 8 |  |  |  |  |  | 
7 | C[C@H]1OC(=O)CC[C@H](O)/C=C/[C@H]2O[C@@H]12 | Non-Toxic | 0 | 0 |  | 0 |  |  |  |  |  | 
8 | C[C@@H]1C[C@H](O)/C=C/C(=O)/C=C\C(=O)O1 | Non-Toxic | 4.3 | 45 | < 1 µg/mL and < 5 µM | 10 | Non-Toxic |  |  |  |  | 
9 | CC(=O)O[C@H]1/C=C/C=C\C(=O)O[C@H](C)CC1 |  | 0 | 0 |  | 55 |  | 160 |  |  |  | 
10 | CCC[C@H]1OC(=O)CCC/C=C/[C@H](O)[C@@H]1O [HERBARUMIN I] | Non-Toxic | 4.8 | 0 |  |  |  |  | 54 |  |  | 
11 | C[C@@H]1C[C@H](O)/C=C/[C@@H](O)/C=C\C(=O)O1 [MODIOLIDE A] |  |  |  |  |  |  |  |  | 61 (≈ 308 µM) | 292 (≈ 1470 µM) | > 125
12 | C[C@@H]1CC[C@@H](O)/C=C/C=C\C(=O)O1 [STAGONOLIDE E] | Non-Toxic | 1.7 | 0 |  | 67 |  |  |  |  |  | 
13 | CCC[C@H]1OC(=O)CCC/C=C/C(=O)[C@@H]1O [STAGONOLIDE] |  | 6.4 | 38 | 3 µg/mL and 13 µM |  |  | 300 | 15 |  |  | 
